Data as given in patent US20250236616A1, “IMMUNOMODULATING AZALIDES” (Zoetis Services LLC, priority 2021, published 2025).

How the values were obtained:
[1] = tested on: BRD pathogens, M. haemolytica and P. multocida; experiment: MIC screening panel, BRD pathogens (CLSI broth micro-dilution); assay type: cell-based; conditions: BRD pathogenic strains / target pathogens; read-out: MIC
In short: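 MICs were determined by CLSI broth micro-dilution in cation-adjusted Mueller Hinton Broth at about 5×10^5 CFU/mL, with QC strains included. Incubation was 18-22 h at 35-37° C. in air, 5% CO2 or anaerobically (up to 48 h) depending on strain. BRD pathogens were first tested at a top concentration of 64 μg/mL in an eleven-point dilution series.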

[2] = tested on: P. multocida; experiment: Murine P. multocida intranasal challenge study, treatment 18 hours after challenge, survival; assay type: in vivo, mice; conditions: subcutaneous 18 hours after challenge (5×10^3 CFU/mouse); tulathromycin 16 mg/kg, M9 32 mg/kg, ceftiofur 9 mg/kg
Description: (§1) In one murine P. multocida intranasal challenge study, mice were administered tulathromycin (16 mg/kg; T02), M9 (32 mg/kg; T03), or ceftiofur (9 mg/kg; T04) by subcutaneous injection 18 hours after bacterial challenge (5×10^3 CFU/mouse) for lung tissue RNA sequence analysis. Survival at Day 7 was about 80%, 50%, and 90% for T02, T03, and T04, respectively, compared to placebo at 0%. Differential gene expression from total lung tissue RNA sequence analysis indicated at least 226 unique genes were up or down regulated (with significance) for T03. Output from ingenuity pathway analysis of these unique genes predicted major upstream regulators of the involved pathways. Data was analyzed based on the number of genes being modulated in the same direction that were associated with a given upstream regulator. An activation z-score of 2 or greater is considered significant and the direction change is indicated by + (activated) or -(inhibited). The top 5 pathways included: IL-9 signaling, glucocorticoid receptor signaling, prolactin signaling, JAK STAT signaling, and IL-17 signaling. The top 6 upstream regulators (activation z-score) included: lipopolysaccharide (−6.725), TNF (−4.669), IFNγ (−5.759), IL-1β (−5.947), STAT1 (−2.787), and poly rl: rC-RNA (−5.289). Even though this study was run in the murine model, the top upstream regulators identified as being modulated by M9 include an almost ubiquitous overlap with the pathways identified in the natural disease study as being key mediators in BRD, and therefore is modulating highly relevant pathways in BRD pathobiology.

[3] = tested on: lung tissue gene expression, upstream regulators; experiment: Lung tissue RNA sequence analysis with ingenuity pathway analysis, murine P. multocida challenge; assay type: in vivo, mice; conditions: M9 32 mg/kg
Description: as §1

[4] = tested on: natural bovine respiratory disease (BRD); experiment: Natural bovine respiratory disease study, treatment failure; assay type: in vivo, beef calves; conditions: dosed on arrival to the feedlot, 14-day observation
Description: The primary clinical endpoint for efficacy was treatment failure/success over a 14-day observation period. Clinically normal beef calves (150-200 kg) at moderate risk for BRD were dosed on arrival to the feedlot. Animals (N=114/group) received saline (T01), 5 mg/kg M9 (T02) or 10 mg/kg M9 (T03); or Zactran (T04).

[5] = tested on: M. haemolytica (strain: OSU-012103-BHI); experiment: Bovine M. haemolytica intratracheal lung challenge model, mortality; assay type: in vivo; conditions: 6 animals
Description: To evaluate immunomodulation effects and potential biomarkers, a bovine M. haemolytica (strain: OSU-012103-BHI) intratracheal lung challenge model study was completed utilizing M9 treatment in the presence and absence of bacterial challenge and a Draxxin® comparator. […] Animals were administered 0.05 mL/kg saline (T01), 10 mg/kg M9 (T02); Draxxin 2.5 mg/kg (T03) and 10 mg/kg M9 (T04) by subcutaneous injection on Day-1. Dose was based on body weight. Animals were challenge on Day 0 with the exception of T04. Blood was collected longitudinally throughout the study for biomarker evaluation panel (e.g., IL-6 and CD163) including two baseline samples prior to treatment. FIG. 4A depicts the area under the curve concentrations for IL-6 protein for individual animals against percent lung lesion scores and FIG. 4B depicts the CD163 fold change area under the curve for individual animals against percent lung lesion scores. Data is represented as percent lung lesion scores against the area under the curve (AUC) for IL-6 protein (immunoassay expressed in pg/mL) and CD163 (flow cytometric mean fluorescent intensity (MFI) in fold change from baseline). In both assays, a 2-fold change is typically considered to be relevant.

[6] = tested on: M. haemolytica challenge model; experiment: Separate study, M9 versus saline control: lung lesions and mortality; assay type: in vivo; conditions: 10 mg/kg; saline control 38.9%, p=0.025
Source text: BRD infection as compared to saline (T01) in the M. haemolytica challenge model. […] Additionally, reduction of biomarkers consistent with the proposed mechanism were observed.

## CCCNC[C@]1(O)[C@H](C)O[C@@H](O[C@H]2[C@H](C)[C@@H](O[C@@H]3O[C@H](C)C[C@H](NC)[C@H]3O)[C@](C)(O)C[C@@H](C)CN[C@H](C)[C@@H](O)[C@](C)(O)[C@@H](CC)OC(=O)[C@@H]2C)C[C@@]1(C)OC [Example M9, (2R,3S,4R,5R,8R,10R,11R,12S,13S,14R)-2-ethyl-3,4, 10-trihydroxy-13-(((2R,4R,5S,6S)-5-hydroxy-4-methoxy-4,6-dimethyl-5-((propylamino)methyl)-tetrahydro-2H-pyran-2-yl)oxy)-11-(((2S,3R,4S,6R)-3-hydroxy-6-methyl-4-(methylamino)tetrahydro-2H-pyran-2-yl)oxy)-3,5,8,10,12,14-hexamethyl-1-oxa-6-azacyclopentadecan-15-one]
[1]
  MIC: ≤ 64 µg/mL
[2]
  Survival at Day 7: ~50%
[3]; total lung tissue RNA sequence analysis
  unique genes up or down regulated (with significance): at least 226
[3]; − = inhibited
  activation z-score, upstream regulator IFNγ: −5.759
  activation z-score, upstream regulator IL-1β: −5.947
  activation z-score, upstream regulator STAT1: −2.787
  activation z-score, upstream regulator TNF: −4.669
  activation z-score, upstream regulator lipopolysaccharide: −6.725
  activation z-score, upstream regulator poly rl: rC-RNA: −5.289
[4]; 5 mg/kg
  Percent failure: 19.3%
[4]; 10 mg/kg
  Percent failure: 8.8%
[5]; M. haemolytica challenge Day 0, subcutaneous Day -1, M9 10 mg/kg, Draxxin 2.5 mg/kg
  Mortality: 1/6
[5]; No challenge, M9 10 mg/kg subcutaneous Day -1
  Mortality: 0/6
[6]
  Mortality: 13%
